The target in one assay is T1, erlin-1 (Homo sapiens, UniProt O75477).
T1 sequence (O75477 1-348): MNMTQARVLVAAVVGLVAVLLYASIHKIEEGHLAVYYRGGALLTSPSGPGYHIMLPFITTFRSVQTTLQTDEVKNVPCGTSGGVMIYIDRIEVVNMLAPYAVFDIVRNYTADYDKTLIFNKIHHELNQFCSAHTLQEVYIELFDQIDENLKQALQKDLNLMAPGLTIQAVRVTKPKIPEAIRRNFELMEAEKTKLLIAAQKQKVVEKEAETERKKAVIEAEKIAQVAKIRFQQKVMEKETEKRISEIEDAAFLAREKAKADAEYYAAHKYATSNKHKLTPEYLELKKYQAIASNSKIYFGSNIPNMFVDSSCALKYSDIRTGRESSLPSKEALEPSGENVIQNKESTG
The assay is classed as binding.

For assay [1], the target named is T2, erlin-2 (native erlin-1/2 complex) (Mus musculus, UniProt Q8BFZ9+Q91X78).
T2 sequence (Q8BFZ9 1-340): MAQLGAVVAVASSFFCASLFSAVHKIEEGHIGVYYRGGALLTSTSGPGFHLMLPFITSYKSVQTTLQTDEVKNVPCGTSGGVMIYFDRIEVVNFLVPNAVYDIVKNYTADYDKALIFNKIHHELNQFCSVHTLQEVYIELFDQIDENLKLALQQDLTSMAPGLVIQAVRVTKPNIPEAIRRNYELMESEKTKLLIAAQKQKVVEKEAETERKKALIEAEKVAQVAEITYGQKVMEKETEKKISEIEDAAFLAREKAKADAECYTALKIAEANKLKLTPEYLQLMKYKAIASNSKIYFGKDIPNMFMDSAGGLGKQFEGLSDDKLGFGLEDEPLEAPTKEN
T2 sequence (Q91X78 1-348): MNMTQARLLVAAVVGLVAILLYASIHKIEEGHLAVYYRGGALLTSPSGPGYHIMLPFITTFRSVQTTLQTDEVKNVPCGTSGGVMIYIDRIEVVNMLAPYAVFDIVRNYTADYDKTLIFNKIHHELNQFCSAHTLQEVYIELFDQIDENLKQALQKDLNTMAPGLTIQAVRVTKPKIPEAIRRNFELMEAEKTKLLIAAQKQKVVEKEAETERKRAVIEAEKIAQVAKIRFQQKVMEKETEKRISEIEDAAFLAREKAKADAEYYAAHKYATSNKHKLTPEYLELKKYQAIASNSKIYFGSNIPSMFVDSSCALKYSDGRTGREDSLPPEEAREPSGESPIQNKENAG
Type of assay: binding.

A word on the Kd: it is the constant that tells how readily two partners part at equilibrium. A lower Kd goes with higher affinity. On to `CC(C)CCC[C@@H](C)[C@H]1CC[C@H]2[C@@H]3CC=C4C[C@@H](O)CC[C@]4(C)[C@H]3CC[C@]12C` [cholesterol], for which the Kd on erlin-1 is 13.2 µM; in assay [1], 13.4 µM.

The values are drawn from article PMC3824017 (The Journal of Cell Biology, 2013).
